PMC12118337, “Development of a Peptide Inhibitor Targeting the C‐SH2 Domain of the SHP2 Phosphatase” (Chembiochem, 2025)
Non-standard residues stand in square brackets, D forms with d. Residues, ends and D or L forms follow the SMILES beside them. pY = N[C@@H](Cc1ccc(OP(=O)(O)O)cc1)C(=O)O

What was measured:
[1] = target: T1, full‐length SHP2 (Homo sapiens, UniProt Q06124); test: DiFMUP phosphatase assay, peptide activation (no activator); assay type: biochemical; settings: 0.5 nM full-length SHP2, no tandem activator, peptide 0.096 nM – 51.2 µM
T1 construct: 1–525) proteins were prepared; His-SUMO3 (pETM11-SUMO3 vector) (N, cleaved yes); made in house; host or cells: E. coli BL21(DE3)
T1 sequence (Q06124 1-525): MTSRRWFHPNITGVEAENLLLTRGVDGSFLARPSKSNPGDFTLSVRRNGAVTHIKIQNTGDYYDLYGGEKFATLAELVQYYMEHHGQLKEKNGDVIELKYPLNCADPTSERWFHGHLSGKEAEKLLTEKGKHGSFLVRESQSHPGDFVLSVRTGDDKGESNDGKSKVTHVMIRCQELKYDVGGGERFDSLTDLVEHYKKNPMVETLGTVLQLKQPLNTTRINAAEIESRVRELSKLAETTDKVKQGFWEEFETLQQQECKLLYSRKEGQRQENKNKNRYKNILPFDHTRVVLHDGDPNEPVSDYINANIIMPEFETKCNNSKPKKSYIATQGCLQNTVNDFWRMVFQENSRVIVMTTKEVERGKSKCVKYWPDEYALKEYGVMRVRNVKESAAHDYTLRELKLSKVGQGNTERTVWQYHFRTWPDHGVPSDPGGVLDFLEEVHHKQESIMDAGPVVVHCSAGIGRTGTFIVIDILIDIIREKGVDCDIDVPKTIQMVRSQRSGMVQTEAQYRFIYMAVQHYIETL
Procedure: 6. DiFMUP phosphatase assays
SHP2 dephosphorylation of the fluorogenic substrate 6,8-difluoro-4-methylumbiliferyl phosphate (DiFMUP) was measured to evaluate the effect of acetylated peptides on SHP2 activity. Final concentrations of 0.5 nM full-length SHP2, 200 µM DiFMUP (Invitrogen) and 26 nM bisphosphorylated tandem ITIM-[dPEG4]2-ITSM (CASLO ApS) were used, unless stated otherwise, per well in 96-well plates (OptiPlate-96 F Black; PerkinElmer). For peptide activation assays, each well contained 60 µL of reaction buffer (50 mM HEPES pH 7.6, 150 mM NaCl, 1 mM EDTA, 0.05% Tween 20, freshly added 5 mM DTT), 10 µL of SHP2 and 20 µL of the test peptide (0.096 nM – 51.2 µM final concentration). For peptide inhibition assays in the presence of a SHP2 activator, each well contained 40 µL of reaction buffer (50 mM HEPES pH 7.6, 150 mM NaCl, 1 mM EDTA, 0.05% Tween 20, freshly added 5 mM DTT), 10 µL of SHP2 and 40 µL of previously mixed bisphosphorylated tandem ITIM-[dPEG4]2-ITSM activator and test peptide (0.096 nM – 51.2 µM or 0.376 nM – 200 µM final concentration). […] The fluorescence was immediately measured on a Synergy H1 Microplate Reader (BioTek) with the excitation and emission monitored at 358 nm and 452 nm, respectively, over 30 minutes. Data were analysed in Excel 2016 by subtracting background values from emission values and calculating the slope of the emission profiles. […]

[2] = target: T2, SHP2 C‐SH2 domain (Homo sapiens, UniProt Q06124); test: Isothermal titration calorimetry (ITC), SHP2 C-SH2 domain; assay type: binding; settings: 20 mM Tris-HCl pH 7.6, 150 mM NaCl, 1:1 stoichiometry assumed, one experiment, read-out: K D, C‐SH2 (ITC)
T2 construct: SHP2 N-SH2 domain (1–105), C-SH2 domain (106–220), PTP domain (224–541) and; His6 (pETM22 vector) (N, cleaved yes); made in house; host or cells: E. coli BL21(DE3)
T2 sequence (Q06124 106-220): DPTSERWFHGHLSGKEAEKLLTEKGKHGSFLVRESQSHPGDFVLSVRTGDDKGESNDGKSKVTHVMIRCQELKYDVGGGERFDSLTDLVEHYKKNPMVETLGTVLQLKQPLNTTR
Procedure: (§1) concentration of 100 nM in a final volume of 200 µL. For baseline subtraction, each peptide was added to FP buffer, instead of protein, with a final peptide concentration of 100 nM in a final volume of 200 µL. Samples were mixed gently then 3 x 60 µL of each sample was transferred into triplicate wells in a 96-well plate (OptiPlate-96 F Black; PerkinElmer). The FP was immediately measured on a Synergy H1 Microplate Reader (BioTek) with the excitation and emission monitored at 485 nm and 528 nm, respectively, over 30 minutes. FP values were automatically calculated by the Gen5 3.03 (BioTek) software associated with the microplate reader. Data were analysed in Excel 2016 by subtracting baseline values from FP values at 10 minutes. Data were then further analysed in GraphPad Prism 6 by plotting the baseline subtracted FP values against the protein concentration and fitting the data to a variable slope model of non-linear regression to obtain the KD values. Data are from three independent experiments, each performed in technical triplicates.
(§2) 5. Isothermal titration calorimetry
(§3) Isothermal titration calorimetry (ITC) was used to measure the binding of the Ac-ITSM(pTyr) to the SHP2 C-SH2 or N-SH2 domain. […]

[3] = target: T3, SHP2 N‐SH2 domain (Homo sapiens, UniProt Q06124); test: Isothermal titration calorimetry (ITC), SHP2 N-SH2 domain; assay type: binding; settings: 20 mM Tris-HCl pH 7.6, 150 mM NaCl, 1:1 stoichiometry assumed, one experiment, read-out: K D, N‐SH2 (ITC)
T3 construct: SHP2 N-SH2 domain (1–105), C-SH2 domain (106–220), PTP domain (224–541) and; His6 (pETM22 vector) (N, cleaved yes); made in house; host or cells: E. coli BL21(DE3)
T3 sequence (Q06124 1-105): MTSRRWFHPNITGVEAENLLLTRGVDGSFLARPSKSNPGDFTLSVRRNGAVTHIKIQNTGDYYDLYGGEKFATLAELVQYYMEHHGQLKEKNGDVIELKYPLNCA
Procedure: as §1, §2, §3

CC[C@H](C)[C@H](NC(=O)[C@@H](NC(=O)[C@H](C)NC(=O)[C@H](Cc1ccc(OP(=O)(O)O)cc1)NC(=O)[C@H](CCC(=O)O)NC(=O)[C@@H](NC(=O)[C@H](CCC(N)=O)NC(=O)[C@H](CCC(=O)O)NC(C)=O)[C@@H](C)O)[C@@H](C)O)C(=O)N[C@H](C(=O)N[C@@H](Cc1ccccc1)C(=O)N1CCC[C@H]1C(N)=O)C(C)C [Ac‐ITSM(pTyr)] (Ac-EQTE[pY]ATIVFP-NH2) was tested, and the “SHP2 phosphatase activity with peptide alone (activation)” value [1] was “increased”, the Kd [2] was 58.8 nM and the Kd [3] was 106 nM.
